Test results published in US20250346584A1, “NOVEL KAPPA OPIOID LIGANDS” (The Scripps Research Institute, priority 2012, published 2025).

Target: kappa opioid receptor (OPRK1) (Homo sapiens (Human), UniProt P41145)
Experiment: OPRK1 antagonist assay (b-arrestin-2-TEV / b-lactamase reporter cell line, EC80 U-50488 challenge)
Type: cell-based
Conditions: read-out: IC50 nM (% inhib if other than 50%); antagonist mode vs EC80 U-50488; NA = not active at concentrations up to 10 μM

Sequence of kappa opioid receptor (OPRK1) (P41145 whole entry): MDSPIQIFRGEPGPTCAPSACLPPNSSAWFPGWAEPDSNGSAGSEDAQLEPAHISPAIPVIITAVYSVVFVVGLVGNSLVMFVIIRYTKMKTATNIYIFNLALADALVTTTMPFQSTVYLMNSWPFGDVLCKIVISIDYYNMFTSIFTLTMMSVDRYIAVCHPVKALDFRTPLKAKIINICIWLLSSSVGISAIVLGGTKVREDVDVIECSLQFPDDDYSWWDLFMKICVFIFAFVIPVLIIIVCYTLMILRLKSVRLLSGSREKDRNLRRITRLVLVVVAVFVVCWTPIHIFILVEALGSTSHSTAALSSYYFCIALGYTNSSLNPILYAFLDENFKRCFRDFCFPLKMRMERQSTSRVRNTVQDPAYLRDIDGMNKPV

| IC50 | SMILES |
| --- | --- |
| 5900 nM | COC(=O)c1cc(Br)cnc1N1CCC(N)C(O)C1 (stereo not drawn) [compound 83] |
| 6200 nM | COC(=O)c1cc([N+](=O)[O-])cnc1N1CCC(NC2CCCCC2)CC1 [compound 84] |
| 1800 nM | COC(=O)c1cc(N)cnc1N1CCC(NC2CCCCC2)CC1 [compound 85] |
| 628 nM | COC(=O)c1cc(NC(C)=O)cnc1N1CCC(NC2CCCCC2)CC1 [compound 86] |
| 19000 nM | CNC(=O)c1cc(Br)cnc1N1CCC(NC2CCCCC2)CC1 [compound 87] |
| 52 nM | COC(=O)c1cc(I)cnc1N1CCC(NC2CCCC2)C(CO)C1 (stereo not drawn) [compound 88] |
| 116 nM | COC(=O)c1cc(I)cnc1N1CCC(NC2CCCCC2C)C(CO)C1 (stereo not drawn) [compound 89] |
| 186 nM | COC(=O)c1cc(I)cnc1N1CCC(NC2CCOCC2)C(CO)C1 (stereo not drawn) [compound 90] |
| 198 nM | COC(=O)c1cc(I)cnc1N1CCC(NC2CCCCC2OC)C(CO)C1 (stereo not drawn) [compound 91] |
| 2600 nM | CCOC(=O)c1cc(C(=O)OC)c(C)nc1N1CCC(NC2CCCCC2)CC1 [compound 92] |
| 621 nM | CCOC(=O)c1cc(C(=O)OC)c(C)nc1N1CCC(NC2CCCCC2)C(CO)C1 (stereo not drawn) [compound 93] |
| 61 nM | CCOC(=O)c1cc(C(=O)OC)c(C)nc1N1CCC(NC2CCCCC2)C(O)C1 (stereo not drawn) [compound 94] |
| 1.4 nM | CCCC(=O)Nc1cnc(N2CCC(NC3CCCCC3)CC2)c(C(=O)OC)c1 [compound 95] |
| 6700 nM | CC(=O)c1cc(Br)cnc1N1CCC(NC2CCCCC2)CC1 [compound 96] |
| 2000 nM | CC(=O)c1cc(Br)cnc1N1CCC(NC2CCCCC2)C(CO)C1 (stereo not drawn) [compound 97] |
| 1100 nM | COC(=O)c1cc([N+](=O)[O-])cnc1N1CCC(NC2CCCCC2)C(O)C1 (stereo not drawn) [compound 98] |
| 4500 nM | CC(=O)c1cc(Br)cnc1N1CCC(NC2CCCCC2)C(O)C1 (stereo not drawn) [compound 99] |
| 2200 nM | CCOC(=O)c1cc(C(=O)OC)c(C)nc1N1CCC(NC2CCCCC2)C1 (stereo not drawn) [compound 104] |
| 24 nM | COC(=O)c1cc(I)cnc1N1CC[C@@H](NC2CCCCC2)[C@H](O)C1 [compound 106] |
| 11000 nM | CCc1noc(-c2cc(Br)cnc2N2CCC(NC3CCCCC3)CC2)n1 [compound 107] |
| 404 nM | COC(=O)c1cc(C)cnc1N1CCC(NC2CCCCC2)CC1 [compound 108] |

| IC50 | SMILES |
| --- | --- |
| 198 nM | COC(=O)c1cc(C)cnc1N1CCC(NC2CCCCC2)C(CO)C1 (stereo not drawn) [compound 109] |
| 108 nM | COC(=O)c1cc(C)cnc1N1CCC(NC2CCCCC2)C(O)C1 (stereo not drawn) [compound 110] |
| 281 nM | COC(=O)c1cc(Cl)cnc1N1CC[C@H](NC2CCCCC2)[C@@H](O)C1 [compound 111] |
| 2000 nM | COC(=O)c1cc(Br)cnc1N1CCC(NC2CCCCC2)C(C(=O)OC)C1 (stereo not drawn) [compound 113] |
| 1200 nM | COC(=O)c1cc(Br)cnc1N1CCC(NC2CCCC2)C(C(=O)OC)C1 (stereo not drawn) [compound 114] |
| 1700 nM | COC(=O)c1cc(Br)cnc1N1CCC(NC2CCCCCC2)C(C(=O)OC)C1 (stereo not drawn) [compound 115] |
| 793 nM | COC(=O)c1cc(Br)cnc1N1CCC(NC2CCCCC2)C(C(=O)OC)C1 (stereo not drawn) [compound 116] |
| 3800 nM | COC(=O)c1cc(Br)cnc1N1CCC(NC2CCCC2)C(C(=O)OC)C1 (stereo not drawn) [compound 117] |
| 661 nM | COC(=O)c1cc(Br)cnc1N1CCC(NC2CCCCCC2)C(C(=O)OC)C1 (stereo not drawn) [compound 118] |
| 12 nM | CCOC(=O)c1cc(C(=O)OC)c(C)nc1N1CC[C@@H](NC2CCCCC2)[C@H](O)C1 [compound 119] |
| 125 nM | COC(=O)c1cc(Br)cnc1N1CCC(NC2CCCCC2)C(OC)C1 (stereo not drawn) [compound 122] |
| 11 nM | COC(=O)c1cc(I)cnc1N1CCC(NC2CCCCC2)C(OC)C1 (stereo not drawn) [compound 123] |
| 112 nM | COC(=O)c1cc(I)cnc1N1CCC(NC2CCCCC2)C(O)C1 (stereo not drawn) [compound 126] |
| 33 nM | CC(=O)c1cc(Br)cnc1N1CC[C@@H](NC2CCCCC2)[C@H](O)C1 [compound 127] |
| 35 nM | COC(=O)c1cc(C)cnc1N1CC[C@@H](NC2CCCCC2)[C@H](O)C1 [compound 128] |
| 799 nM | O=Cc1cc(Br)cnc1N1CC[C@@H](NC2CCCCC2)[C@H](O)C1 [compound 129] |
| 272 nM | CCc1cnc(N2CCC(NC3CCCCC3)C(O)C2)c(C(=O)OC)c1 (stereo not drawn) [compound 133] |
| 23 nM | CCOC(=O)c1cc(Br)cnc1N1CC[C@@H](NC2CCCCC2)[C@H](O)C1 [compound 134] |
| 1630 nM | CC(C)OC(=O)c1cc(Br)cnc1N1CC[C@@H](NC2CCCCC2)[C@H](O)C1 [compound 135] |
| 49 nM | Cc1noc(-c2cc(Br)cnc2N2CC[C@@H](NC3CCCCC3)[C@H](O)C2)n1 [compound 136] |
| 1600 nM | CCc1noc(-c2cc(Br)cnc2N2CC[C@@H](NC3CCCCC3)[C@H](O)C2)n1 [compound 137] |

| IC50 | SMILES |
| --- | --- |
| 3200 nM | CN(C)C(=O)c1cc(Br)cnc1N1CC[C@@H](NC2CCCCC2)[C@H](O)C1 [compound 138] |
| 4800 nM | CCN(CC)C(=O)c1cc(Br)cnc1N1CC[C@@H](NC2CCCCC2)[C@H](O)C1 [compound 139] |
| 100 nM | COC1CN(c2ncc(Br)cc2-c2nc(C)no2)CCC1NC1CCCCC1 (stereo not drawn) [compound 143] |
| 4800 nM | CC(=O)c1cc(Br)cnc1N1CCC(NC2CCCCC2)C(CO)C1 (stereo not drawn) [compound 144] |
| 117 nM | Cc1noc(-c2cc(Br)cnc2N2CCC(NC3CCCCC3)C(CO)C2)n1 (stereo not drawn) [compound 145] |
| 85 nM | CCOC(=O)c1cc(Br)cnc1N1CCC(NC2CCCCC2)C(OC)C1 (stereo not drawn) [compound 146] |
| 5800 nM | COC(=O)c1cccnc1N1CC[C@@H](NC2CCCCC2)[C@H](O)C1 [compound 148] |
| 5400 nM | COC(=O)c1cccnc1N1CCC(NC2CCCCC2)C(CO)C1 (stereo not drawn) [compound 149] |
| 9100 nM | O[C@@H]1CN(c2ncc(Br)cc2-c2nc(C3CC3)no2)CC[C@H]1NC1CCCCC1 [compound 150] |
| 2100 nM | OCC1CN(c2ncc(Br)cc2-c2nc(C3CC3)no2)CCC1NC1CCCCC1 (stereo not drawn) [compound 151] |
| 30 nM | Cc1cnc(N2CCC(NC3CCCCC3)C(CO)C2)c(-c2nc(C)no2)c1 (stereo not drawn) [compound 152] |
| 191 nM | CCOC(=O)c1cc(C)c(C)nc1N1CC[C@@H](NC2CCCCC2)[C@H](O)C1 [compound 153] |
| 146 nM | Cc1noc(-c2cc(C)c(C)nc2N2CC[C@@H](NC3CCCCC3)[C@H](O)C2)n1 [compound 154] |
| 1300 nM | Cc1noc(-c2cc(C3CC3)cnc2N2CC[C@@H](NC3CCCCC3)[C@H](O)C2)n1 [compound 155] |
| 1000 nM | CCc1cnc(N2CC[C@@H](NC3CCCCC3)[C@H](O)C2)c(-c2nc(C)no2)c1 [compound 156] |
| 37 nM | COC(=O)c1cc2ccccc2nc1N1CCC(NC2CCCCC2)C(CO)C1 (stereo not drawn) [compound 157] |
| 431 nM | COC(=O)c1cc2ccccc2nc1N1CCC(NC2CCCCC2)C(OC)C1 (stereo not drawn) [compound 158] |
| 35 nM | CCOC(=O)c1cc(C)c(C)nc1N1CCC(NC2CCCCC2)C(CO)C1 (stereo not drawn) [compound 159] |
| 209 nM | COC(=O)c1cc2ccccc2nc1N1CC[C@@H](NC2CCCCC2)[C@H](O)C1 [compound 160] |
| 157 nM | COC(=O)c1cc(C)c(C)nc1N1CC[C@@H](NC2CCCCC2)[C@H](O)C1 [compound 161] |

| SMILES | IC50 |
| --- | --- |
| CCO/N=C/c1cc(Br)cnc1N1CCC(NC2CCCCC2)CC1 [compound 101] | 4000 nM |
